Data taken from ChEMBL document CHEMBL2380200, “Enantioselective inhibition of microbial lipolytic enzymes by nonracemic monocyclic enolphosphonate analogues of cyclophostin” (J Med Chem, 2013).

How the values were obtained:
[1] = test system: Mycobacterium tuberculosis; experiment: Inhibition of Mycobacterium tuberculosis monoacylglycerol lipase Rv0183 at 20 molar excess compound concentration preincubated with enzyme measured after 30 mins by pH-stat technique relative to control
[2] = target: T1, Cutinase 1 (Fusarium vanettenii) (UniProt P00590); experiment: Inhibition of Fusarium solani pisi cutinase preincubated with enzyme measured after 30 mins by pH-stat technique
T1 sequence (whole entry): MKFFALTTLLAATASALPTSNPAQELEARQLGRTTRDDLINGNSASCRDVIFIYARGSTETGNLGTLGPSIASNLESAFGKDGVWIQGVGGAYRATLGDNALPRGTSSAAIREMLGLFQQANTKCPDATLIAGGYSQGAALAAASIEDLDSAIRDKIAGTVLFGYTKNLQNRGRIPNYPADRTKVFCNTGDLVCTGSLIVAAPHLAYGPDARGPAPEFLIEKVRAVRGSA

[3] = test system: Mycobacterium tuberculosis; experiment: Inhibition of Mycobacterium tuberculosis triacylglycerol lipase LipY at 20 molar excess compound concentration preincubated with enzyme measured after 30 mins by pH-stat technique relative to control
[4] = target: T1, Cutinase 1 (Fusarium vanettenii); experiment: Inhibition of Fusarium solani pisi cutinase at 20 molar excess compound concentration preincubated with enzyme measured after 30 mins by pH-stat technique relative to control
[5] = test system: Mycobacterium tuberculosis; experiment: Inhibition of Mycobacterium tuberculosis monoacylglycerol lipase Rv0183 preincubated with enzyme measured after 30 mins by pH-stat technique
[6] = test system: Mycobacterium tuberculosis; experiment: Inhibition of Mycobacterium tuberculosis triacylglycerol lipase LipY preincubated with enzyme measured after 30 mins by pH-stat technique

SMILES | inhibition [1] [%] | XI50 [2] [molar excess] | inhibition [3] [%] | inhibition [4] [%] | XI50 [5] [molar excess] | XI50 [6] [molar excess]
CCCCCCCCCC[C@H]1CC[P@@](=O)(OC)OC(C)=C1C(=O)OC | 78.7 | 97.3 | 39.8 | 22.5 | 11.3 | 25.9
CCCCCCCCCC[C@@H]1CC[P@@](=O)(OC)OC(C)=C1C(=O)OC | 87.7 | 3.38 | 82.8 | 91.8 | 7.61 | 1.64
CCCCCCCCCC[C@H]1CC[P@](=O)(OC)OC(C)=C1C(=O)OC | 96.6 | 2.52 | 42.1 | 93.2 | 1.16 | 20
CCCCCCCCCC[C@@H]1CC[P@](=O)(OC)OC(C)=C1C(=O)OC | 93.1 | 4.07 | 49.6 | 86.5 | 1.24 | 15.4
